“Also recorded” adds a separate entry of the source.

The record followed here is patent publication US10000471B2, “Pyrazole P38 map kinase inhibitors” (Respivert Limited, priority 2010, dated 2018).

Data set [1] relates to TNFα release in THP-1 cells. As to the kind of experiment: LPS-induced TNFα release in THP-1 cells. Type of data set: cell-based, human. The note with it: Homo sapiens. The method in brief:
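IC50 derived from concentration-response of TNFα inhibition relative to vehicle, with TNFα quantified by sandwich ELISA in supernatants. THP-1 cells were challenged 4 hr with LPS (E. coli, 3 μg/mL).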

The subject of data set [2] is ICAM-1 induction in BEAS2B cells. As to the kind of experiment: Poly I:C-induced ICAM-1 induction in BEAS2B cells. Type of data set: cell-based, human. The note with it: Homo sapiens, BEAS-2B, read-out: PolyIC/ICAM1 IC50 BEAS2B. Summed up: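 IC50 reflects inhibition of cell-surface ICAM-1 relative to vehicle, read by ELISA (OD450 against 655 nm) and divided by crystal violet OD595 for cell number. Readings were taken 18 hr after transfection of 1 μg/mL poly I:C into BEAS2B cells. Compound was added 2 hr before stimulation.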

In a further data set the target is T1, p38 MAPKγ (MAPK12) (Homo sapiens, UniProt P53778).
T1 construct: purchased Invitrogen
T1 sequence (P53778 1-367): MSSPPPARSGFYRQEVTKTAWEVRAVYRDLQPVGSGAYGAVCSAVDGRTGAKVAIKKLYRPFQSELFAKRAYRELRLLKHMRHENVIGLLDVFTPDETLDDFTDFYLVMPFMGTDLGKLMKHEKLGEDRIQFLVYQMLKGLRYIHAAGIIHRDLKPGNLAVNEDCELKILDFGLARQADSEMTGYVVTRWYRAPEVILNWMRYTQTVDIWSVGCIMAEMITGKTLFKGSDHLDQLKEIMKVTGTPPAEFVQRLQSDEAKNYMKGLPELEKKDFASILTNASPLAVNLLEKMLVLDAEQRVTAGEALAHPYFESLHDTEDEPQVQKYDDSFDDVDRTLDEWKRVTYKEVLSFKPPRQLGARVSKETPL
As to the kind of experiment: Enzyme inhibition assay (FRET, Z-LYTE), p38 MAPKγ. The class given is biochemical. The note with it: read-out: Enzyme Inhibition IC50 p38γ. The method in brief:
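Z-LYTE FRET readout: after 1 h kinase reaction (ATP 100 μM, peptide 2 μM) following 2 h RT enzyme–compound preincubation in HEPES, protease cleaves only unphosphorylated peptide. Percent inhibition from donor/acceptor ratio relative to control; IC50 fitted from the curve.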

The next data set deals with Balb/c mice. As to the kind of experiment: LPS-induced neutrophil accumulation in mice. The class given is in vivo. The note with it: for % inhibition of Influx / Neutrophil numbers in BAL 8 h pre-dose: 0.2 mg/mL, 8 h pre-dose; for inhibitory effects versus neutrophil influx into the BALF: dosed 8 hr before the inflammatory stimulus. As for the experimental part: LPS-Induced Neutrophil Accumulation in Mice
Non-fasted Balb/c mice were dosed by the intra tracheal route with either vehicle, or the test substance at the indicated times (within the range 2-8 hr) before stimulation of the inflammatory response by application of an LPS challenge. At T=0, mice were placed into an exposure chamber and exposed to LPS. After a further 8 hr the animals were anesthetized, their tracheas cannulated and BALF extracted by infusing and then withdrawing from their lungs 1.0 mL of PBS via the tracheal catheter. Total and differential white cell counts in the BALF samples were measured using a Neubaur haemocytometer. Cytospin smears of the BALF samples were prepared by centrifugation at 200 rpm for 5 min at RT and stained using a DiffQuik stain system (Dade Behring). Cells were counted using oil immersion microscopy.

Data set [3] deals with IL-8 release in d-U937 cells. As to the kind of experiment: LPS-induced IL-8 release in d-U937 cells. The note with it: Homo sapiens, dU937. Type of data set: cell-based, human. The method in brief: (§1)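 Sandwich ELISA of TNFα and IL-8 in supernatants after 4 hr 0.1 μg/mL LPS (E. coli O111:B4) challenge of U937 cells differentiated with PMA 100 ng/ml for 48–72 hr, compound added 2 hr beforehand. IL-8: IC50 from inhibition versus vehicle; TNFα: REC50 from inhibition as percentage of 10 μg/mL BIRB796 effect.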

The test system of data set [4] is TNFα release in d-U937 cells. In words: LPS-induced TNFα release in d-U937 cells. Type of data set: cell-based, human. The note with it: Homo sapiens, dU937, relative to 10 μg/mL BIRB796, read-out: LPS/TNFα REC50 d-U937. Summed up: as §1
In data set [5] the test system is Differentiated U937 cells. As to the kind of experiment: Cell viability MTT assay. Type of data set: cell-based, human. The note with it: negative = apparent increase in viability; for MTT Assay (Viability) 4 h d-U937, percentage loss of cell viability: 4 hr in 5% FCS; for MTT Assay (Viability) 24 h d-U937, percentage loss of cell viability: 24 h in 10% FCS. The method in brief:
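Differentiated U937 cells pre-incubated with compound either 4 hr in 5% FCS or 24 h in 10% FCS, then 1 hr MTT. Formazan dissolved in DMSO, absorbance at 550 nm. Percentage viability loss relative to 0.5% DMSO vehicle; apparent increases appear as negative percentages.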
A general note: Tetrazolium dyes change colour on reduction, which living cells bring about.

Data set [6] has as its target T2, p38 MAPKα isoform (MAPK14) (Homo sapiens, UniProt Q16539).
T2 construct: purchased Invitrogen
In words: Enzyme inhibition assay (FRET, Z-LYTE), p38 MAPKα via MAPKAP-K2 activation. Type of data set: biochemical. The note with it: read-out: Enzyme Inhibition IC50 p38α. The method in brief:
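Z-LYTE FRET format, in which protease cleaves only non-phosphorylated peptide, read after 1 h development. Compound was mixed with p38 MAPKα for 2 h at RT, and inhibition was gauged from MAPKAP-K2 activation/phosphorylation rather than directly. Percent inhibition against an uninhibited control was fitted to give IC50.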

A further data set has as its system A/J mice. As to the kind of experiment: Cigarette smoke model. The class given is in vivo. The note with it: 1.75 μg/mouse (35 μL, bid, i.n.), cigarette smoke model. As for the experimental part: A/J mice (males, 5 weeks old) were exposed to cigarette smoke (4% cigarette smoke, diluted with air) for 30 min/day for 11 days using a Tobacco Smoke Inhalation Experiment System for small animals (Model SIS-CS; Sibata Scientific Technology, Tokyo, Japan). Test substances were administered intra-nasally (35 μL of solution in 50% DMSO/PBS) twice daily for 3 days after the final cigarette smoke exposure. At 12 hr after the last dosing, each of the animals was anesthetized, the trachea cannulated and bronchoalveolar lavage fluid (BALF) was collected. The numbers of alveolar macrophages and neutrophils were determined by FACS analysis (EPICS® ALTRA II, Beckman Coulter, Inc., Fullerton, Calif., USA) using anti-mouse MOMA2 antibody (macrophage) or anti-mouse 7/4 antibody (neutrophil).
The data for cell numbers are shown as the mean±SEM.

T2 sequence (Q16539 whole entry, canonical isoform): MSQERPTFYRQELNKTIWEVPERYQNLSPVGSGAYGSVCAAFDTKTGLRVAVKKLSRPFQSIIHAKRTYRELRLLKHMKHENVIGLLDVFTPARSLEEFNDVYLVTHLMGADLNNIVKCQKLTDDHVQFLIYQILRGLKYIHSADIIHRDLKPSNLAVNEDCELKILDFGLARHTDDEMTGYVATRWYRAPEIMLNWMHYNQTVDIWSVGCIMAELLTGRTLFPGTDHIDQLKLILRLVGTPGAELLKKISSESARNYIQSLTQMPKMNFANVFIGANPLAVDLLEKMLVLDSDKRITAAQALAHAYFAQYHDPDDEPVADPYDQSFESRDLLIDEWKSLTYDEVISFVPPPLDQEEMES

As for `Cc1ccc(-n2nc(C(C)(C)C)cc2NC(=O)Nc2ccc(Oc3cc(NC(=O)NCCN(C)C)ncn3)c(Cl)c2Cl)cc1` [Example 24, 1-(3-tert-Butyl-1-p-tolyl-1H-pyrazol-5-yl)-3-(2,3-dichloro-4-(6-(3-(2-(dimethylamino)ethyl)ureido)pyrimidin-4-yloxy)phenyl)urea], the IC50 in data set [1] is 1.7 nM; in data set [2], 10.5 nM; on p38 MAPKγ (MAPK12) it was 46.3 nM; in data set [3] it was 1.1 nM; in data set [6] it was 5.7 nM. In addition, the “% inhibition of Influx” value in the data set with Balb/c mice (Table 5) was determined as 9%. In the data set with Balb/c mice (Table 5), the “Neutrophil numbers in BAL 8 h pre-dose” value was 15.71 ± 2.48 × 10^5/mL. In addition, the “inhibitory effects versus neutrophil influx into the BALF” value in the data set with Balb/c mice was “inhibitory effects”. Besides, in [4], the EC50 stood at 1.7 nM. The “MTT Assay (Viability) 4 h d-U937, percentage loss of cell viability” value in data set [5] is on record as −17.7%. In data set [5], the “MTT Assay (Viability) 24 h d-U937, percentage loss of cell viability” value was determined as 39.5%.
As to `CC(C)(C)c1cc(NC(=O)Nc2ccc(Oc3ccnc(NC(=O)N4CCCC4)c3)c(Cl)c2Cl)n(-c2ccc(O)cc2)n1` [Example 75, N-(4-(4-(3-(3-tert-butyl-1-(4-hydroxyphenyl)-1H-pyrazol-5-yl)ureido)-2,3-dichlorophenoxy)pyridin-2-yl)pyrrolidine-1-carboxamide], the IC50 in data set [1] stood at 0.4 nM; in data set [2], 0.3 nM; on p38 MAPKγ (MAPK12), 181 nM; in [3] it was 1.7 nM; in [6], 147 nM. Also, the “% inhibition of Influx” value in the data set with Balb/c mice (Table 6) amounted to 23%. The “Neutrophil numbers in BAL 8 h pre-dose” value in the data set on Balb/c mice (Table 6) is recorded as 10.87 ± 2.13 × 10^5/mL. The “inhibitory effects versus neutrophil influx into the BALF” value in the data set with Balb/c mice is recorded as “inhibitory effects; also recorded: particularly marked”. Also, the EC50 in [4] worked out at 1.3 nM. In addition, in [5], the “MTT Assay (Viability) 4 h d-U937, percentage loss of cell viability” value is −33.7%. Besides, the “MTT Assay (Viability) 24 h d-U937, percentage loss of cell viability” value in data set [5] is 6.6%.
Take `CN(C)[C@H]1CCN(C(=O)Nc2cc(Oc3ccc(NC(=O)Nc4cc(C(C)(C)C)nn4-c4ccc(O)cc4)c(Cl)c3Cl)ccn2)C1` [Example 80, (S)-N-(4-(4-(3-(3-tert-butyl-1-(4-hydroxyphenyl)-1H-pyrazol-5-yl)ureido)-2,3-dichlorophenoxy)pyridin-2-yl)-3-(dimethylamino) pyrrolidine-1-carboxamide]: the IC50 is 0.6 nM in data set [1]; 2.3 nM in data set [2]; 59.3 nM at p38 MAPKγ (MAPK12); 3.6 nM in [3]; 12.3 nM in data set [6]. Further, in the data set on Balb/c mice (Table 5), the “% inhibition of Influx” value was 12%. For the same molecule, the “Neutrophil numbers in BAL 8 h pre-dose” value in the data set with Balb/c mice (Table 5) is listed as 15.22 ± 2.34 × 10^5/mL. The “inhibitory effects versus neutrophil influx into the BALF” value with Balb/c mice is recorded as “inhibitory effects”. Further, in data set [4], the EC50 was found to be 0.8 nM. For the same molecule, the “MTT Assay (Viability) 4 h d-U937, percentage loss of cell viability” value in [5] is −3.0%. Further, in data set [5], the “MTT Assay (Viability) 24 h d-U937, percentage loss of cell viability” value is listed as 15.7%.
In the case of `COCC(=O)Nc1cc(Oc2ccc(NC(=O)Nc3cc(C(C)(C)C)nn3-c3ccc(OC)cc3)c(Cl)c2Cl)ncn1` [Example 91, N-(6-(4-(3-(3-tert-butyl-1-(4-methoxyphenyl)-1H-pyrazol-5-yl)ureido)-2,3-dichlorophenoxy)pyrimidin-4-yl)-2-methoxyacetamide], the IC50 came out at 1.6 nM in data set [1]; 2.9 nM in data set [2]; 162 nM at p38 MAPKγ (MAPK12); 5.9 nM in [3]; 58.3 nM in data set [6]. The “% inhibition of Influx” value in the data set on Balb/c mice (Table 5) was found to be 33%. In the data set on Balb/c mice (Table 5), the “Neutrophil numbers in BAL 8 h pre-dose” value was 11.67 ± 2.07 × 10^5/mL. In the data set on Balb/c mice, the “inhibitory effects versus neutrophil influx into the BALF” value is on record as “inhibitory effects; also recorded: particularly marked”. In addition, in [4], the EC50 worked out at 1.2 nM. In addition, the “MTT Assay (Viability) 4 h d-U937, percentage loss of cell viability” value in data set [5] is given as −47.2%. Moreover, in [5], the “MTT Assay (Viability) 24 h d-U937, percentage loss of cell viability” value was found to be 6.9%.
For the molecule `COc1ccc(-n2nc(C(C)(C)C)cc2NC(=O)Nc2ccc(Oc3cc(NC(=O)NCCN(C)C)ncn3)c(Cl)c2Cl)cc1` [Example 100], the IC50 in data set [1] was determined as 0.7 nM; in [2], 2 nM; on p38 MAPKγ (MAPK12), 59.4 nM; in [3] it was 12.9 nM; in data set [6], 5.3 nM. In [4], the EC50 is 0.3 nM. Besides, in data set [5], the “MTT Assay (Viability) 4 h d-U937, percentage loss of cell viability” value is reported as −43.0%. The “MTT Assay (Viability) 24 h d-U937, percentage loss of cell viability” value in data set [5] turned out to be 17.2%.
For the molecule `CN(C)CCNC(=O)Nc1cc(Oc2ccc(NC(=O)Nc3cc(C(C)(C)C)nn3-c3ccc(CO)cc3)c(Cl)c2Cl)ncn1` [Example 101, 1-(3-tert-butyl-1-(4-hydroxymethylphenyl)-1H-pyrazol-5-yl)-3-(2,3-dichloro-4-(6-(3-(2-(dimethylamino)ethyl)ureido)pyrimidin-4-yloxy)phenyl)urea], the IC50 in data set [1] came to 10.4 nM; in [2] it was 5.2 nM; on p38 MAPKγ (MAPK12), 57.7 nM; in data set [3], 3.1 nM; in data set [6], 5.6 nM. Further, the EC50 in [4] was 1.1 nM. For the same molecule, the “MTT Assay (Viability) 4 h d-U937, percentage loss of cell viability” value in data set [5] was found to be 2.8%. Also, the “MTT Assay (Viability) 24 h d-U937, percentage loss of cell viability” value in [5] worked out at 73.9%.
For the molecule `CNC(=O)Nc1cc(COc2ccc(NC(=O)Nc3cc(C(C)(C)C)nn3-c3ccc(C)cc3)c(Cl)c2Cl)ccn1` [Example 102, 1-(4-((4-(3-(3-tert-butyl-1-p-tolyl-1H-pyrazol-5-yl)ureido)-2,3-dichlorophenoxy)methyl)pyridin-2-yl)-3-methylurea], the IC50 was determined as 3.5 nM in data set [1]; 25.4 nM in data set [2]; 140 nM on p38 MAPKγ (MAPK12); 4.8 nM in data set [3]; 44.1 nM in [6]. In data set [4], the EC50 came to 4.7 nM. Also, in data set [5], the “MTT Assay (Viability) 4 h d-U937, percentage loss of cell viability” value is on record as −14.1%. For the same molecule, the “MTT Assay (Viability) 24 h d-U937, percentage loss of cell viability” value in data set [5] is 8.8%.
Turning to `CCC(=O)O[C@]1(C(=O)SCF)[C@H](C)C[C@H]2[C@@H]3C[C@H](F)C4=CC(=O)C=C[C@]4(C)[C@@]3(F)[C@@H](O)C[C@@]21C` [fluticasone propionate, reference compound], the “inhibition of LPS-induced neutrophil accumulation” value in the data set on Balb/c mice (1.75 μg/mouse) is on record as above 80%. Further, the “neutrophil or macrophage accumulation into airways” value in the data set on A/J mice is on record as “did not inhibit”.
